Source: patent publication US20250320213A1, “Nitrogen-Containing Heterocyclic Compounds” (Pfizer Inc., priority 2024, published 2025)
pEC50, pIC50: −log10 of the molar value. Like-named read-outs stand apart in the source and are kept apart here.

Columns and labels:
[1] = system: CCL17 secretion in peripheral human whole blood; test: Human Whole Blood (HWB) CCL17 TR-FRET Assay (IL-13 stimulated CCL17 secretion); type: cell-based
Outline: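 Heparin-anticoagulated human blood; cpd 11-pt 3-fold dilution, duplicate, 2 h 37 °C preinc; IL-13 10 ng/mL final, 48 h 37 °C; spin, serum CCL17 by TR-FRET ELISA, 16 h RT, 665/615 ratio; IC50.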

STAT6 = molecular target: T1, STAT6 (Homo sapiens, UniProt P42226); test: STAT6 Reporter Luciferase Assay (IL-13 stimulated HaCaT keratinocyte NanoLuc reporter cells); type: cell-based; details: read-out: Reporter EC50
T1 construct: stably transfected HaCaT keratinocyte cell line, which expresses NanoLuc luciferase reporter gene under the transcriptional control of the STAT6 responsive promoter; endogenous in cells; host or cells: HaCaT keratinocyte reporter cell line (stably transfected with a NanoLuc reporter)
T1 sequence (P42226 1-847): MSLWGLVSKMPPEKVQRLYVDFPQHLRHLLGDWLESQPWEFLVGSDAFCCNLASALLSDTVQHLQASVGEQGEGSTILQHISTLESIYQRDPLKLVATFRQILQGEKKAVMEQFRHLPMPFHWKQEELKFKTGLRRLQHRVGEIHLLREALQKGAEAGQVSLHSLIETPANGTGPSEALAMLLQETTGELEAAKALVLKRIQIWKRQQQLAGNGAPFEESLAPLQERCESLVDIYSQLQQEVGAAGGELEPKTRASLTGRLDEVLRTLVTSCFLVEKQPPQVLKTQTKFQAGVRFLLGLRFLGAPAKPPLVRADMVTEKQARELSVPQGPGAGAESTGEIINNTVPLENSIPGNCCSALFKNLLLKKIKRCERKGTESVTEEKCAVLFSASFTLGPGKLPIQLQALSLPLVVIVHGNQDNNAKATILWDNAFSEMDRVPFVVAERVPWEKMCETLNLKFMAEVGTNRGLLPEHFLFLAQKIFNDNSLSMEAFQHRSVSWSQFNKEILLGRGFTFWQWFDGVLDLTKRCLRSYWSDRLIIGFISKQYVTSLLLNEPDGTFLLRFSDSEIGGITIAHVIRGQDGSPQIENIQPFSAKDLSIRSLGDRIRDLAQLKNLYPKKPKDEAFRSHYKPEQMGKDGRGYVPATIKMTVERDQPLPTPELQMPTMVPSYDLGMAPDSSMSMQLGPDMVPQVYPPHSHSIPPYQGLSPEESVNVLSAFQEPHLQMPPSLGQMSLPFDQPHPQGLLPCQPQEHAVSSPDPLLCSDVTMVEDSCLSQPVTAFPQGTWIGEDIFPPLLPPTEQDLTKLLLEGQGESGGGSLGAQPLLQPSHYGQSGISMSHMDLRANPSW
Outline: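 Cells were plated overnight, washed, exposed to compound for two hours, stimulated with IL-13 (0.12 nM final) for four hours at 37 °C, and then lysed with Nano-Glo substrate for 15 min before luminescence reading.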

[2] = Homo sapiens, 48 h, human whole blood, IL-13 stimulated
[3] = IL-13 stimulated HaCaT STAT6 NanoLuc reporter cells
[4] = Homo sapiens, 48 h, inhibition of CCL17 secretion in human whole blood, 10 ng/mL IL13, 48 hours
[5] = STAT6 NanoLuc luciferase reporter, IL-13 stimulated HaCaT keratinocyte cells

Row | Compound | pIC50 [1, 2] | pEC50 (STAT6; [3]) | pIC50 [1, 4] | pEC50 (STAT6; [5]) | further results
1 | CN(C)C(=O)Nc1ccc(CNC(=O)c2nn(C3(C(F)(F)F)CC3)c3c2CN(c2ccc(C(=O)N(C)C)cn2)CC3)cc1 [Example 320, 5-(5-(dimethylcarbamoyl)pyridin-2-yl)-N-(4-(3,3-dimethylureido)benzyl)-1-(1-(trifluoromethyl)cyclopropyl)-4,5,6,7-tetrahydro-1H-pyrazolo[4,3-c]pyridine-3-carboxamide] | 6.87 | 8.30 | – | – | –
2 | CCn1nc(C(=O)NCc2ccc(NC(=O)NC)cc2)c2c1[C@@H](C)CN(c1ccc(N3CCCC3=O)cn1)C2 [Example 476, (S)-1-ethyl-7-methyl-N-(4-(3-methylureido)benzyl)-5-(5-(2-oxopyrrolidin-1-yl)pyridin-2-yl)-4,5,6,7-tetrahydro-1H-pyrazolo[4,3-c]pyridine-3-carboxamide] | 8.05 | 9.00 | – | – | –
3 | COC1(C)CN(C(=O)Nc2ccc(CNC(=O)c3nn(C(C)C)c4c3CN(c3ccc(C(=O)N(C)C)cn3)CC4)cc2)C1 [Example 165, 5-(5-(dimethylcarbamoyl)pyridin-2-yl)-1-isopropyl-N-(4-(3-methoxy-3-methylazetidine-1-carboxamido)benzyl)-4,5,6,7-tetrahydro-1H-pyrazolo[4,3-c]pyridine-3-carboxamide] | – | – | 6.81 | 7.85 | –
4 | CC(C)n1nc(C(=O)NCc2ccc(NC(=O)N3CCCN(C)CC3)cc2)c2c1[C@@H](C)CN(c1ccc(C(=O)N(C)C)cn1)C2 [Example 615, (S)-5-(5-(dimethylcarbamoyl)pyridin-2-yl)-1-isopropyl-7-methyl-N-(4-(4-methyl-1,4-diazepane-1-carboxamido)benzyl)-4,5,6,7-tetrahydro-1H-pyrazolo[4,3-c]pyridine-3-carboxamide] | – | 8.70 | – | – | pIC50 ([1]; Homo sapiens, 48 h, human whole blood, 10 ng/mL IL13, 48 hours): 7.89
5 | C[C@H]1CN(c2ncc(C(=O)N(C)C)cn2)Cc2c(C(=O)NCc3ccc(NC(=O)N(C)C)cc3)nn(C)c21 (single isomer, unassigned) [Example 273] | 7.92 | 8.52 | – | – | –
6 | CN(C)C(=O)Nc1ccc(CNC(=O)c2nc(C3CC3)n3c2CN(c2ccc(C(=O)N(C)C)cn2)CC3)cc1 [Example 13, 3-cyclopropyl-7-(5-(dimethylcarbamoyl)pyridin-2-yl)-N-(4-(3,3-dimethylureido)benzyl)-5,6,7,8-tetrahydroimidazo[1,5-a]pyrazine-1-carboxamide] | – | – | 7.08 | 7.77 | –
7 | CC(C)n1nc(C(=O)NCc2ccc(NC(=O)N3CCN(C)CC3)cc2)c2c1CCN(c1ccc(C(=O)N(C)C)cn1)C2 [Example 177, 5-(5-(dimethylcarbamoyl)pyridin-2-yl)-1-isopropyl-N-(4-(4-methylpiperazine-1-carboxamido)benzyl)-4,5,6,7-tetrahydro-1H-pyrazolo[4,3-c]pyridine-3-carboxamide] | – | – | 7.29 | 8.10 | –
8 | CN(C)C(=O)Nc1ccc(CN2CCn3nc4c(c3C2=O)CN(c2ccc(C(=O)N(C)C)cn2)CC4)cc1 [Example 256, 6-(9-(4-(3,3-dimethylureido)benzyl)-10-oxo-3,4,7,8,9,10-hexahydropyrido[4′,3′:3,4]pyrazolo[1,5-a]pyrazin-2(1H)-yl)-N,N-dimethylnicotinamide] | 6.72 | 7.55 | – | – | –
9 | CC(C)n1nc(C(=O)NCc2ccc(NC(=O)N(C)C)cc2)c2c1C(C(F)F)CN(c1ccc(C(=O)N(C)C)cn1)C2 (single isomer, unassigned) [Example 493, rel-(R or S)-7-(difluoromethyl)-5-(5-(dimethylcarbamoyl)pyridin-2-yl)-N-(4-(3,3-dimethylureido)benzyl)-1-isopropyl-4,5,6,7-tetrahydro-1H-pyrazolo[4,3-c]pyridine-3-carboxamide] | – | 7.55 | – | – | pIC50 ([1]; human whole blood, IL-13 stimulated, 48 hours): 6.69
